Converted amounts (≈) assume the structure as drawn. Where two headings read alike, the source gives them in different places.
Key:
[1] = target: PKBγ(h) (Homo sapiens, UniProt Q9Y243); experiment: kinase panel; assay type: biochemical
Method in brief: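 Three compounds in the series were profiled against a panel of 231 kinases, and activity is reported as % inhibition. For one compound, a subset of 98 kinases was selected on the basis of its structural similarity to another series member.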

[2] = Mouse hepatocyte intrinsic clearance and half-life; assay type: in vitro ADME; settings: mouse CD1 hepatocytes; for half-life at 1 µM: cryopreserved pooled hepatocytes; for Mouse Hepatocyte Clearance: 1 µM
Procedure: Intrinsic clearance and half-life were determined using cryopreserved pooled mouse CD1 hepatocytes. Test compounds were analysed at 1 µM in Williams Media E buffer (0.01% DMSO) at a cell density of 0.5 × 10^6 cells mL^–1. Cells were incubated at 37 °C for one hour with shaking, and compound depletion was measured by LC-MS/MS at six time points (0.25, 5, 10, 20, 40, and 60 min).

[3] = test system: IκBα degradation in PC-3M cells; experiment: TNFα-stimulated IκBα degradation, Western blotting; assay type: cell-based; settings: for effect on TNFα-stimulated IκBα degradation: PC-3M cells, 0.1–10 µM
Procedure: (§1) U2OS cells were cultured in McCoy’s 5A Modified Medium, and PC-3M-Luc-C6 prostate cancer cells were cultured in Minimum Essential Medium (MEM), each containing 10% (v/v) Foetal Calf Serum (FCS), L-glutamine ([…]), and penicillin/streptomycin (250 units/mL; 100 μg/mL) and incubated in a humidified atmosphere at 37 °C with 5% (v/v) CO2. Cells were grown to near confluence and prior to experimentation rendered quiescent by serum deprivation for 24 h.
(§2) To examine the potential impact of compounds on canonical NF-κB signalling, cells were then exposed to vehicle (DMSO; 0.05% (v/v)) or increasing concentrations of compounds (0.01–30 µM) for 1 h prior to treatment with TNF⍺ (20 ng/mL) for 30 min. Whole-cell extracts were prepared, and the status of IκB⍺, phospho-p65 (Ser536), p65, and phospho-p105 ([…]) was also assessed by Western blotting.
(§3) Each figure/panel of Western blotting data represents one of at least three separate experiments. Western blots were scanned and imaged using Adobe Photoshop 5.0.2 software and polypeptide bands were semi-quantified by scanning densitometry using the Scion Image program. Data were normalised to fold expression/inhibition relative to ‘agonist plus vehicle’ treatment and expressed as mean ± s.e.m. […]
Figure 14 Compound 5r [SU1261] inhibits LTα1β2-stimulated p100 phosphorylation (Ser866/870) but not TNFα-stimulated IkBα degradation, phosphorylation of p65 (Ser536), nor phosphorylation of p105 (Ser932) in PC-3M prostate cancer cells. […] (0.1–10 µM) for 1 h prior to treatment with LTα1β2 (15 ng/mL) for 4 h, and phospho-p100 (Ser866/870) in whole-cell extracts was assessed by Western blotting. […] (0.1–10 µM) for 1 h prior to treatment with TNFα (10 ng/mL) for 30 min, and IkBα degradation, phospho-p65 (Ser536), phospho-p105 (Ser932), and p65 expression in whole-cell extracts were assessed by Western blotting. […] Normalised data (n = 3) from semi-quantitative scanning densitometry were plotted relative to ‘agonist plus vehicle’ (LTα1β2 plus DMSO), and IC50 values were established by curve fitting using the Hill equation (see Figure S1D).

[4] = test system: p100 phosphorylation (Ser866/870) in PC-3M cells; experiment: LTα1β2-stimulated p100 phosphorylation, Western blotting; assay type: cell-based; settings: Homo sapiens, 1 h pre-treatment, LTα1β2 4 h
Procedure: as §1
For examination of potential effects of compound on non-canonical NF-κB signalling, cells were exposed to vehicle (DMSO; 0.03–0.05% (v/v)) or increasing concentrations of compounds (0.01–30 µM) for 1 h prior to treatment with FCS (10% (v/v); for U2OS cells) or LTα1β2 (20 ng/mL; for PC-3M cells) for 4 h. The status of p-p100 (Ser 866/870) in whole-cell extracts prepared from 12-well plates was assessed by Western blotting, as described in McKenzie et al.. […] Thereafter, p52 and RelB status in crude nuclear extracts normalised for protein amounts were assessed by Western blotting.
Each figure/panel of Western blotting data represents one of at least three separate experiments. Western blots were scanned and imaged using Adobe Photoshop 5.0.2 software and polypeptide bands were semi-quantified by scanning densitometry using the Scion Image program. […]

[5] = test system: p65 (Ser536) phosphorylation in PC-3M cells; experiment: TNFα-stimulated p65 (Ser536) phosphorylation, Western blotting; assay type: cell-based; settings: 0.1–10 µM
Procedure: as §1, §2
as §3, with “s.e.m. IC50 values were established by curve fitting using the Hill equation.” for “s.e.m.”

[6] = Turbidimetric solubility; assay type: physicochemical; settings: pH 7.4, aqueous buffer, kinetic from dmso stock, 0.01 M phosphate-buffered saline pH7.4
Procedure: Pharmacokinetic studies were contracted to Sygnature Discovery Limited. Turbidimetric Solubility was determined by diluting compound solutions (1 μM, 3 μM, 10 μM, 30 μM, 100 μM) prepared in DMSO into 0.01 M phosphate-buffered saline pH7.4. Turbidimetry was used as the endpoint by measuring absorbance at 620 nm.

[7] = In vivo murine PK; settings: mouse, plasma, CD1 mice, 10 mg/kg, mean; for half-life: read-out: Terminal t1/2 (converted)
Procedure: Ta b l e S2. in vivo murine PK parameters for 6g [SU1349]. In vivo PK studies were performed by Shanghai ChemPartner Co. Ltd. (Shanghai, 201203 CN) Each route of administration involved three CD1 mice all receiving a single dose, with mean values reported. The IV/IP dosing solution was prepared in 10% DMAC+ 10% Solutol HS15+ 80% (15% of HP-β-CD) in water. BQL: Below quantiϐiable limit of 1 ng/mL for SU1349 in CD1 mouse plasma. All BQL data was excluded from mean value concentration and graphing. Plasma concentrations were determined on an LCMSMS-010 (API4000, triple quadruple) instrument using Positive Ion, ESI MS conditions, with deaxamethasone as an internal standard. Intravenous time points were taken at 5 min, 15 min, 30 min, 1, 2, 4, 8, and 24 hours and intraperitoneal time points were taken at 15 min, 30 min, 1, 2, 4, 6, 8, […]
Administration Dose Mean PK parameters
Clearance Terminal Vss Cmax Tmax F

Sequence of PKBγ(h) (Q9Y243 whole entry): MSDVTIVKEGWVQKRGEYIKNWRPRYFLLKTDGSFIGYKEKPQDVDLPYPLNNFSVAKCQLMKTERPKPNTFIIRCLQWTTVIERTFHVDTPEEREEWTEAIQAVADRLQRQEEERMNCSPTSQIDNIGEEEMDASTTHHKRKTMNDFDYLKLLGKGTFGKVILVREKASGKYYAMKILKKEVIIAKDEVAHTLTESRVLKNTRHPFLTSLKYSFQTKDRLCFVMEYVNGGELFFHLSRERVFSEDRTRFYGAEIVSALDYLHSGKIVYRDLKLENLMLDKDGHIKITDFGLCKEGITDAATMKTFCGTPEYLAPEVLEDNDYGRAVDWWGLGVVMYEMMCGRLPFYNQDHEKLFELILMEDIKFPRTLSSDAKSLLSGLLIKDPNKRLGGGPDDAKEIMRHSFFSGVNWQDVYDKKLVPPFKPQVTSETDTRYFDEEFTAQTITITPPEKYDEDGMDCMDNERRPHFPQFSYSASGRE

SMILES | inhibition at 1 µM [1] [%] | half-life at 1 µM [2] [min] | Mouse Hepatocyte Clearance [2] [μL/min/10^6 Cells] | effect on TNFα-stimulated IκBα degradation [3] | IC50 [4] [nM] | effect on TNFα-stimulated p65 (Ser536) phosphorylation [5] | solubility [6] [µM] | impact on IKKβ-mediated canonical NF-κB signalling ([3]; prostate cancer cell line (PC-3M), at 10 μM) | Cmax ([7]; ip, I.P.) [ng/mL] | Tmax ([7]; ip, I.P.) [min] | bioavailability ([7]; ip, I.P.) [%] | half-life ([7]; ip, I.P.) [min] | clearance ([7]; iv, I.V.) [mL/min/kg] | half-life ([7]; iv, I.V.) [min] | Vd ([7]; iv, I.V., read-out: Vss) [L/kg]
Nc1n[nH]c2ccc(-c3ccnc4[nH]c(-c5ccccc5)cc34)cc12 [Compound 4] | 12 | – | – | – | – | – | – | – | – | – | – | – | – | – | –
Nc1n[nH]c2ccc(-c3ccnc4[nH]c(-c5cccc(OCc6ccccc6)c5)cc34)cc12 [Compound 5r [SU1261]] | 0 | 36 | 38 | did not impact | 570 | did not impact | < 1 | – | – | – | – | – | – | – | –
Nc1n[nH]c2ccc(-c3ccnc4[nH]c(-c5ccnc(OCc6ccccc6)c5)cc34)cc12 [Compound 6g [SU1349]] | – | 51 | 27 | no impact | 200 | no impact | 20 (≈ 8.65 µg/mL) | no detectable impact | 199 | 26.4 | 9.3 | 181 | 16.7 | 251 | 0.39
